Source: US6399568B1, “Cyclic tetrapeptide derivatives and medicinal use thereof” (Japan Energy Corporation, priority 1997, dated 2002)
Where two headings read alike, the source gives them in different places. Non-standard residues stand in square brackets, D forms with d. Residues, ends and D or L forms follow the SMILES beside them. ξ: configuration not given here. *: point of attachment. Aoe = N[C@@H](CCCCCC(=O)[C@@H]1CO1)C(=O)O; Asu = N[C@@H](CCCCCC(=O)O)C(=O)O; dPip = O=C(O)[C@H]1CCCCN1; Boc = CC(C)(C)OC(=O)*; ξPip = O=C(O)C1CCCCN1; NHOH = ON*

What was measured:
[1] = system: B16/BL6 cells; experiment: MHC class-I molecule expression promoting activity; type: cell-based, mouse; conditions: for conc. for 2-fold expression (nM) mean: mean of a plurality of assays; for conc. for 2-fold expression (nM) mean / Twice Promoting Concentration Cx2: 72 hours; for MHC class-I molecule expression promoting action: FIGS. 3 and 4, dependence on concentration of addition; for Twice Promoting Concentration Cx2: concentration at which MHC class-I expression is twice that without addition
Experimental: The cancer cells used were mouse melanoma cells, B16/BL6 cells, provided by, the National Cancer Institute, U.S.A. Said cells were cultivated in MEM media supplemented with 10% FBS at 37° C. in the presence of 5% carbon dioxide in an humidified incubator.
A compound to be tested was preliminarily dissolved in dimethyl sulfoxide (DMSO) and adjusted to a concentration of 100 mM or 10 mM (source solution).
Said B16/BL6 cells were inoculated on 96 well microplate at a cell density of 5000 cells per well, each well containing 200 μl of said medium. […] Thereafter, each well was once washed with PBS (phosphate buffered saline) and floating cells and the medium were removed. Then, the well was treated with 0.1% glutaraldehyde solution for 3 minutes to fix the cells.
The amount of MHC class-I molecule expressed on the surface of the fixed cells was measured by the following method. Anti-H-2K^bD^bD^d antibody, which is an antibody against mouse MHC classI molecule (commercially available from Meiji Milk Co., Ltd), was used as a primary antibody, biotinylated anti-mouse IgG+M (commercially available from Chemicon) was used as a secondary antibody, and streptavidin-β-galactosidase conjugate (commercially available from BRL) was reacted as a labelling enzyme. The amount of the thus labelled enzyme β-galactosidase was measured in a microplate reader by recording the fluorescent intensity (excitation: 365 nm, fluorescence: 450 nm) derived from the enzymaticreaction product using 4-methylumbelliferyl-β-D-galactoside (commercially available from Nacalai Tesque) as a substrate. […] The value obtained by subtracting said background level from the, actually measured value (an apparent value including the background level) was the true measurement reflecting the amount of expressed MHC class-I molecule.
A group without the addition of any compound to be tested was used as a reference group and the measurement of MHC class-I molecule expressed in said group was used as a standard value. The amount of MHC class-I molecule expressed at a concentration of addition of each test compound is shown as a relative amount, said standard value taken as one (1). For each compound to be tested, various concentrations of addition were selected to investigate the dependency of MHC class-I molecule expression promoting action on the concentration of addition.

[2] = molecular target: Mouse histone deacetylase; type: biochemical
Experimental: In an enzyme system using a radio-labelled acetylated histone as a substrate, histone deacetylase enzyme inhibiting activity was evaluated. The basic conditions were in accordance with the method of Yoshida et al. (J. Biol. Chem., 265, 17174-17179, 1990).
Mouse histone deacetylase to be used was partially purified from FM3A cells. Cells were suspended in HDA buffer (15 mM potassium phosphate, 5% glycerol, 0.2 mM EDTA, pH 7.5), homogenized and centrifuged (35000×g, 10 min) to collect the nuclei which in turn were homogenized in the same buffer containing 1 M (NH4)2SO4. After ultrasonic disruption and centrifugation, the concentration of (NH4)2SO4 in the supernatant was increased to 3.5 M to precipitate deacetylase enzyme proteins. This precipitate was redissolved in HDA buffer, dialyzed against HDA buffer, applied to DEAE-cellulose column and eluted in NaCl gradient. Active fractions were used as a histone deacetylase enzyme solution.
As a substrate, [^3H]acetyl histone was used. In a culture solution of FM3A cells in the presence of 5 mM sodium n-butyrate, [^3H]acetate was added, followed by incubation for 30 minutes to radio-label the histone. The histone was prepared in a conventional manner and used as a substrate solution.
An assay was performed by adding a compound to be tested at a given concentration while using a no-addition control group, and by incubating the substrate solution and the enzyme solution at 37° C. for 10 minutes (reaction volume, 100 μl). The enzyme reaction was stopped by adding 10 μl of concentrated hydrochloric acid and the excised [^3H]acetate was extracted with ethyl acetate for radioactivity measurement. The inhibiting activity was expressed by a concentration at which the enzyme activity in the control group was inhibited by 50% (50% inhibiting concentration).

[3] = system: colon cancer Colon26 cell line; experiment: Cell proliferation inhibition (72 hours); type: cell-based, mouse; conditions: read-out: 50% proliferation inhibiting concentration Colon 26 (nM) mean
Text: (§1) In order to verify the action of the cyclic tetrapeptide derivative according to the present invention in inhibiting cell proliferation in cancerized cells, the action on the proliferation of the aforementioned B16/BL6 cells was investigated. The evaluation of cell proliferation rates was done utilizing a commercially available measuring kit, specifically, from Promega under the trade name CellTiter 96 Aqueous Non-Radioactive Proliferation Assay Kit. In the measuring kit, the amount of products through reduction of a reagent tetrazolium compound (3-(4,5-dimethylthiazol-2-yl)-5-(3-carboxymethoxyphenyl)-2-(4-sulfophenyl)-2H-tetrazolium, inner salt; MTS) by viable animal cells is determined by detecting spectrophotometrically the color generated from the products. Since the amount of products is proportional to the amount of viable cells, this kit is utilized to evaluate the amount of viable cells.
(§2) According to the procedure of Test Example 1, B16/BL6 cells are inoculated in a 96 well microplate and cultured for 24 hours. Then, 10 μl of a solution of the source solution of a compound to be tested which has been diluted to a predetermined amount per well is added. Thereafter, culture is continued for additional 48 hours and 20 μl of a reagent solution in the aforementioned CellTiter 96 Aqueous Non-Radioactive Proliferation Assay Kit is then added. After incubation is continued at 37° C. for 1 hour, the amount of color generation is measured as an absorbance at 490 n musing a microplate reader.
(§3) The amount of cell proliferation of a group to which a compound to be tested is added is expressed in a relative value as compared to the standard cell proliferation (100%) in a control group to which no compound to be tested is added. For each compound tested, the amounts of cell proliferation were measured at different concentrations of addition and the dependence of the quantitative cell proliferation on the concentration of addition was investigated. From the results, a concentration of addition at which the amount of cell proliferation was inhibited by 50% relative to the amount of cell proliferation in the control group without addition was determined.
(§4) The test method was in accordance with the above-mentioned procedure, except that the period of incubation after the addition of a compound was 72 hours.
(§5) As illustrative examples, results are shown for an evaluation using mouse malignant melanoma B16/BL6 and B16 cell lines; leukemia L1210 cell line, colon cancer Colon26 cell line, and liver cancer MH134 cell line as cancer cells. For the cell proliferation inhibiting action of each compound tested for these cancer cells, 50% proliferation inhibiting concentrations are shown in Table 4.

[4] = system: leukemia L1210 cell line; experiment: Cell proliferation inhibition (72 hours); type: cell-based, mouse; conditions: read-out: 50% proliferation inhibiting concentration L1210 (nM) mean
Text: as §1, §2, §3, §4, §5

[5] = system: liver cancer MH134 cell line; experiment: Cell proliferation inhibition (72 hours); type: cell-based, mouse; conditions: read-out: 50% proliferation inhibiting concentration MH134 (nM) mean
Text: as §1, §2, §3, §4, §5

[6] = system: mouse malignant melanoma B16/BL6 cell line; type: cell-based; conditions: 72 hours; read-out: 50% proliferation inhibiting concentration B16/BL6 (nM) mean
Text: as §1
as §2, with “Then, 10 μl of a solution of the source solution of a compound to be tested which has been diluted to a predetermined amount per well is added.” left out
as §3, with “investigated.” for “investigated. From the results, a concentration of addition at which the amount of cell proliferation was inhibited by 50% relative to the amount of cell proliferation in the control group without addition was determined.”
as §4

[7] = system: mouse malignant melanoma B16 cell line; experiment: Cell proliferation inhibition (72 hours); type: cell-based; conditions: read-out: 50% proliferation inhibiting concentration B16 (nM) mean
Text: as §1, §2, §3, §4, §5

[8] = molecular target: histone deacetylase; experiment: Histone deacetylase enzyme inhibiting activity, synthetic peptide substrate; type: biochemical, mouse; conditions: enzyme from B16/BL6 cells; [3H]acetylated histone H4 peptide; 37° C. 3 hours
Experimental: The preparation of histone deacetylase was performed essentially according to the method of Yoshida et al. (J. Biol. Chem., 265,17174-17179, 1990). The enzyme to be used was partially purified from B16/BL6 cells. The cells were suspended in HDA buffer (15 mM potassium phosphate, 5% glycerol, 0.2 mM EDTA, […], pH 7.5), homogenized and centrifuged (2500×g, 10 min) to collect the nuclei, which in turn were homogenized in the same buffer containing 1 M (NH4)2SO4. After ultrasonic disruption and centrifugation, the concentration of (NH4)2SO4 in the collected supernatant was increased to 3.5 M to precipitate histone deacetylase. This precipitate was redissolved in HDA buffer, subjected to gel filtration to replace the solvent with HDA buffer, and used as a crude histone deacetylase enzyme solution.
As a substrate, a synthetic substrate peptide, [^3H]acetylated histone H4 peptide was used. This [^3H]acetylated histone H4 peptide was obtained by synthesizing the N-terminal peptide of histone H4; […] (the C-terminal being cysteine) and radio-acetylating with ^3H -acetic anhydride.
An assay was performed by incubating the synthetic substrate solution and the enzyme solution at 37° C. for 3 hours in the presence of a compound to be tested (reaction volume, 100 μl). The reaction was stopped by adding 25 μl of 1 M HCl and 0.2 M acetic acid and [^3H]acetate excised by the enzyme reaction was extracted with ethyl acetate for radioactivity measurement. As a control group, the same procedure was repeated without addition of any test compound to the reaction system. The inhibiting activity was expressed by a concentration at which the histone deacetylase enzyme activity in the control group was inhibited by 50% (50% inhibiting concentration).

[9] = system: B16/BL6 cells; experiment: Inhibitory effect on cell proliferation (MTS, 48 hours); type: cell-based, mouse; conditions: 48 hours after addition; read-out: 50% inhibiting concentration
Text: as §1, §2, §3

[10] = enzyme from FM3A cells, [3H]acetyl histone, 37° C. 10 minutes

Row | SMILES | conc. for 2-fold expression (nM) mean [1] | IC50 [2, 10] | IC50 [3] | IC50 [4] | IC50 [5] | IC50 [6] | IC50 [7] | MHC class-I molecule expression promoting activity ([1]; allowed to act on animal cells (summary statement)) | IC50 [2] | IC50 [8] | MHC class-I molecule expression promoting action [1] | Twice Promoting Concentration Cx2 [1] | IC50 [9]
1 | CC(=O)NCCCC[C@@H]1NC(=O)[C@H]2CCCN2C(=O)[C@H](Cc2ccccc2)NC(=O)[C@H](Cc2ccccc2)NC1=O [HDA-6, cyclo(-L-Lys(Ac)-L-Phe-L-Phe-D-Pro-)] (cyclo(FF[dP]K(Ac))) | 240000 nM | 27800 nM |  |  |  |  |  |  |  |  |  |  | 
2 | CC(C)C[C@@H]1NC(=O)[C@@H](Cc2ccccc2)NC(=O)[C@H](CCCCCC(=O)NO)NC(=O)[C@H]2CCCN2C1=O [HDA-29, cyclo(-L-Asu(NHOH)-D-Phe-L-Leu-D-Pro-)] (cyclo([Asu](NHOH)[dF]L[dP])) | 5.41 nM | 1.59 nM | 198 nM | 43.8 nM | 176 nM | 15.8 nM | 293 nM |  |  |  |  |  | 
3 | O=C1N[C@@H](Cc2ccccc2)C(=O)N2CCCC[C@@H]2C(=O)N[C@@H](CCCCCC(=O)[C@@H]2CO2)C(=O)N[C@H]1Cc1ccccc1 [trapoxin A, reference compound] (cyclo([Aoe]FF[dPip])) | 3.59 nM | 0.47 nM |  |  |  |  |  | exhibit the MHC class-I molecule expression promoting activity |  |  |  |  | 
4 | CCCC(=O)[O-].[Na+] [Sodium n-butyrate, reference compound] |  |  |  |  |  |  |  |  | 119000 nM |  |  |  | 
5 | O=C(CCCCC[C@@H]1NC(=O)[C@H]2CCCN2C(=O)[C@H](Cc2ccccc2)NC(=O)[C@@H](Cc2ccccc2)NC1=O)NO [HDA-27, cyclo(-L-Asu(NHOH)-D-Phe-L-Phe-D-Pro-)] (cyclo([Asu](NHOH)[dF]F[dP])) | 3.01 nM |  | 277 nM | 53 nM | 236 nM | 18 nM | 309 nM |  | 1.45 nM | 3.44 nM |  |  | 
6 | CC(C)C[C@@H]1NC(=O)[C@@H](Cc2ccccc2)NC(=O)[C@H](CCCCCC(=O)NO)NC(=O)C2CCCCN2C1=O (stereo partly drawn) [HDA-12, cyclo(-Asu(NHOH)-D-Phe-Leu-Pip-)] (cyclo([Asu](NHOH)[dF]L[ξPip])) | 2.75 nM |  | 149 nM | 28.3 nM | 112 nM | 9.44 nM | 262 nM |  |  |  | exhibited MHC class-I molecule expression promoting action | 3.86 nM | 12.3 nM
7 | CC(C)C[C@@H]1NC(=O)[C@@H](Cc2ccccc2)NC(=O)[C@H](CCCCCC(=O)NO)NC(=O)[C@@H]2CCCN2C1=O [HDA-28, cyclo(-L-Asu(NHOH)-D-Phe-L-Leu-L-Pro-)] (cyclo([Asu](NHOH)[dF]LP)) | 80.2 nM | 6.04 nM | 7370 nM | 1330 nM | 4830 nM | 470 nM | 3820 nM |  |  |  |  |  | 
8 | O=C(CCCCCC[C@@H]1NC(=O)[C@H]2CCCN2C(=O)[C@H](Cc2ccccc2)NC(=O)[C@H](Cc2ccccc2)NC1=O)NO [HDA-17, cyclo(-Aaz(NHOH)-Phe-Phe-D-Pro-)] | 990 nM | 19.8 nM | 29300 nM | 7380 nM | 19900 nM | 1260 nM | 23500 nM |  |  | 24.7 nM | exhibited MHC class-I molecule expression promoting action | 1120 nM | 
9 | C[C@@H]1NC(=O)[C@H]2CCCN2C(=O)[C@H](CCCCCC(=O)NO)NC(=O)[C@@H](C)NC1=O [HDA-13, cyclo(-L-Asu(NHOH)-D-Pro-L-Ala-D-Ala-)] (cyclo(A[dA][Asu](NHOH)[dP])) | 406 nM |  | 11000 nM | 2770 nM | 7920 nM | 866 nM | 15400 nM |  |  |  |  |  | 
10 | O=C(CCCC[C@@H]1NC(=O)[C@H]2CCCN2C(=O)[C@H](Cc2ccccc2)NC(=O)[C@H](Cc2ccccc2)NC1=O)NO [HDA-18, cyclo(-Api(NHOH)-Phe-Phe-D-Pro-)] | 10900 nM | 390 nM | > 100000 nM | > 100000 nM | > 100000 nM | 59300 nM | > 100000 nM |  |  | 150 nM | exhibited MHC class-I molecule expression promoting action | 11600 nM | 
11 | CC(C)(C)OC(=O)NCCCC[C@@H]1NC(=O)[C@H](CCCCCC(=O)NO)NC(=O)[C@H]2CCCN2C(=O)[C@H](Cc2ccccc2)NC1=O [HDA-32, cyclo(-L-Asu(NHOH)-L-Lys(Boc)-L-Phe-D-Pro-)] (cyclo([Asu](NHOH)K(Boc)F[dP])) | 773 nM | 4.95 nM |  |  |  |  |  |  |  |  |  |  | 
